The target of data set [1] is T1, ACE (Oryctolagus cuniculus, UniProt P12822).
T1 construct: Angiotensin Converting Enzyme (ACE) from rabbit lung; purchased Sigma-Aldrich; host or cells: rabbit lung tissue
T1 sequence (P12822 34-1310): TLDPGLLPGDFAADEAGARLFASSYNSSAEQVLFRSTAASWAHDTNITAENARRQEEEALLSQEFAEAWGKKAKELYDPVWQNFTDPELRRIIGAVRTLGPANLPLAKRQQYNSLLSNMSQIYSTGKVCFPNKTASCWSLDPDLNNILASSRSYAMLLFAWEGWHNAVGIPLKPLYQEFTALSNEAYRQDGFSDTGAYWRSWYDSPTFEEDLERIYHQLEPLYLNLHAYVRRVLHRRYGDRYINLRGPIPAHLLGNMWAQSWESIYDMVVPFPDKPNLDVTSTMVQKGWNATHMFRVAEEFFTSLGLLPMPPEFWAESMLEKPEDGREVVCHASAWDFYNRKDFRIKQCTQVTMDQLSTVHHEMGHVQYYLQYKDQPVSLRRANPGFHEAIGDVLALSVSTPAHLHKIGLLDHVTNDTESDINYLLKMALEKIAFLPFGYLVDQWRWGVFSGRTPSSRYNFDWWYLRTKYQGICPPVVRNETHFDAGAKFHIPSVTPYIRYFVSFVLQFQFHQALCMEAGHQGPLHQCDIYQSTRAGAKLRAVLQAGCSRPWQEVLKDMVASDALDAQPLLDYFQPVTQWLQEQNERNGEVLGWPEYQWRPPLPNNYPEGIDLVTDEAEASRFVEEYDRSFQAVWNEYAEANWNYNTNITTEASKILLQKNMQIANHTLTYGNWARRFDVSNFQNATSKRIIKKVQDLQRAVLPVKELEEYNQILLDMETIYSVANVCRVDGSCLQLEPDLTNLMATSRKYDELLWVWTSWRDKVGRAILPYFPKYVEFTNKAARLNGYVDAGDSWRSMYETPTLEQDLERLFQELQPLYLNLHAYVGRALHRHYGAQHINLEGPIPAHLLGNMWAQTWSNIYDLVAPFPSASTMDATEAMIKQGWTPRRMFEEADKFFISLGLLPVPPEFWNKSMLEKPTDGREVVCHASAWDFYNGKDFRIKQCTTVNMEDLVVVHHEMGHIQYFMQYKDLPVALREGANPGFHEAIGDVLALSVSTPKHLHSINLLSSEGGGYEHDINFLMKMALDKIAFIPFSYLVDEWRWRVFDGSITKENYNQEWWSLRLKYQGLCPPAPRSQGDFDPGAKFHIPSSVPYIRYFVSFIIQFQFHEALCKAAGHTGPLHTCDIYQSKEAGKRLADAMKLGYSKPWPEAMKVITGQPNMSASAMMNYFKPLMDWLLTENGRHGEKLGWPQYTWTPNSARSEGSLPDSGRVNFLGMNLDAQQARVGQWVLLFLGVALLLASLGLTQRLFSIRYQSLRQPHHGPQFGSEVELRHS
Briefly: Modulation of ACE activity, FRET substrate Abz-FRK(Dnp)P-OH. The data set is classed as biochemical, rabbit. The following applies: 10 µM peptide, 3.0 ng ACE, 10 µM Abz-FRK(Dnp)P-OH, Tris HCl 100 mM, NaCl 50 mM, ZnCl2 10 µM, pH 7.0, 37 °C, 15 min, fluorescence 320/420 nm, triplicate. The procedure:
The results were obtained by incubating the enzymes with their FRET substrates (10 µM) in a final volume of 100 µL. For the ACE assays, the used buffer was Tris HCl 100 mM, NaCl 50 mM and ZnCl2 10 µM, pH 7.0. For NEP, the assays were made in Tris HCl 50 mM, pH 7.5 buffer. All reactions occurred at 37 °C, in a Victor 3 fluorimeter (Perkin–Elmer) adjusted for excitation and emission readings at 320 and 420 nm, respectively, for 15 min (one reader per minute). Results were obtained in triplicate and analyzed on GraFit 5 software.
For ACE assays, 10 µM of each peptide was incubated with 3.0 ng of peptidase and 10 µM of Abz-FRK (Dnp) P-OH substrate, in Tris HCl 100 mM, NaCl 50 mM and ZnCl2 10 µM, pH 7.0 buffer. For NEP, 10 µM of TsHpt-I or -II was incubated with 1.5 ng of peptidase, 3.5 µM Abz-RGFK (Dnp)-OH in Tris HCl 50 mM, pH 7.5 buffer. All reactions occurred at 37 °C, in a final volume of 100 µL, in a Victor 3 fluorimeter (Perkin–Elmer, Waltham, MA, USA) adjusted for excitation and emission readings at 320 and 420 nm, respectively, for 15 min (one reader per minute). Results were obtained in triplicate and analyzed using GraFit 5 (Erithacus software, East Grinstead, West Sussex, UK).

In data set [2] the test system is T2, ACE.
T2 construct: Angiotensin Converting Enzyme (ACE) from rabbit lung; purchased Sigma-Aldrich; host or cells: rabbit lung tissue
Briefly: Stability of peptides against ACE (susceptibility to hydrolysis, RP-HPLC). The following applies: rabbit, isolated ACE (angiotensin-converting enzyme); 30 µM peptide, ACE 3.0 ng, Tris HCl 100 mM, NaCl 50 mM, ZnCl2 10 µM, pH 7.0, 4 h, 37 °C, RP-HPLC C18, UV 214 nm; read-out: hydrolysis products after incubation with ACE. The data set is classed as in vitro ADME. The procedure:
Figure 1 Analysis of the susceptibility to hydrolysis of the hypotensins over the vasopeptidases NEP and ACE. Incubations were carried out in Tris HCl 100 mM, NaCl 50 mM and ZnCl2 10 µM, pH 7.0, for the ACE assays, and, for the NEP assays, in Tris HCl 50 mM, pH 7.5 buffer, for four hours at 37 °C. (A) TsHpt-I control (black line) and after incubation with NEP (red line). (B) TsHpt-II control (black line) and TsHpt-II incubated with NEP (red line). (C) TsHpt-I control (black line) and incubated with ACE (red line). (D) TsHpt-II control (black line) and after incubation with ACE (red line). The samples of negative and experimental controls (A) TsHpt-I and (B) TsHpt-II are shown on the left and right, respectively. The hydrolysis products were considered ≤5%. The gradient used was 20% to 60% solvent B in 20 min, and 60% to 100% solvent B in 5 min (flow 1 mL/min, absorbance at 214 nm). Restek Ultra C-18 5 µm column, 250 × 4.6 mm.
The synthetic peptides TsHpt-I and TsHpt-II (30 µM) were incubated with ACE (3.0 ng), in Tris HCl 100 mM, NaCl 50 mM and ZnCl2 10 µM, pH 7.0 buffer, and NEP (1.5 ng), in Tris HCl 50 mM, pH 7.5 buffer, at 37 °C for 4 h. Samples containing only the synthetic peptides were used as the negative control. After incubation, samples were analyzed by reverse phase chromatography on RP-HPLC (Shimadzu, Kyoto, Japan), using a Restek Ultra C-18 column (5 µm, 250 × 4.6 mm). […]

Values joined by “and” are separate entries in the source; they are usually repeats but may differ in a detail not shown here. Equal entries are not always repeated. No end group written: not given here. Bounds are passed on as bounds.

AEIDFSGIPEDIIKEIKETNAKPPA [TsHpt-II]: the “ACE Activation (%)” value on ACE [1] is 46% and 44%. In the data set with ACE [2], the metabolised at 4 h, 30 µM was ≤ 5%.
As for AEIDFSGIPEDIIKQIKETNAKPPA [TsHpt-I], on ACE [1], the “ACE Activation (%)” value amounted to 64%. Further, the metabolised at 4 h, 30 µM with ACE [2] was ≤ 5%.

The values are drawn from paper PMC8704389, “New Insights into the Hypotensins from Tityus serrulatus Venom: Pro-Inflammatory and Vasopeptidases Modulation Activities” (Toxins, 2021).
